Columns and labels:
mink = settings: Multigenerational reproductive toxicity study, ranch wild brown, Oral, Feed, dose end: 1 generation
mouse [1] = settings: Carcinogenicity; b6c3f1; Oral; Feed; dose end: 80 week; group: systemic; systemic / pathology microscopic / liver / hepatocellular carcinoma
rat [2] = settings: Carcinogenicity, Osborne-Mendel, Oral, Feed, dose end: 80 week, group: systemic
rat [3] = settings: Developmental neurotoxicity study, sprague dawley, Oral, [Not Specified], dose end: 155 PND, group: cannot be grouped
dog [4] = settings: Subchronic oral toxicity in nonrodent, beagle, Feed, dose end: 26 week
mouse [5] = settings: Subchronic oral toxicity in rodents, cd1, Feed, dose end: 7 week
rat [6] = settings: Combined chronic toxicity/carcinogenicity, sprague dawley, Oral, Feed, dose end: 24 month
rat [7] = settings: Subchronic oral toxicity in rodents, other, Feed, dose end: 90 day
rat [8] = settings: Subchronic oral toxicity in rodents, Charles River Crl:CD BR, Feed, dose end: 6 week
mouse [9] = settings: Carcinogenicity, cd1, Oral, Feed, dose end: 18 month, group: systemic
rabbit = settings: Prenatal developmental toxicity study, new zealand white, Oral, Gavage/Intubation, dose end: 19 GD, group: maternal
rat [10] = settings: Prenatal developmental toxicity study, other, Oral, Gavage/Intubation, dose end: 16 GD, group: maternal
dog [11] = settings: Subchronic oral toxicity in nonrodent, beagle, Feed, dose end: 103 day
dog [12] = settings: Chronic toxicity, beagle, Oral, Feed, dose end: 52 week
rat [13] = settings: Developmental neurotoxicity study; long evans; Injection; Intraperitoneal; dose end: 80 PND; group: cannot be grouped; systemic / in life observation / body weight / offspring (pup) weight + systemic / in life observation / clinical signs / abnormal movements…
rat [14] = settings: Developmental neurotoxicity study; long evans; Inhalation; Whole-Body; dose end: 100 PND; group: cannot be grouped; developmental / developmental malformation / bone / incomplete ossification + developmental / developmental malformation / ovary / …
[15] = group: offspring, developmental / offspring survival late / [other] / [other] + systemic / in life observation / body weight / offspring (pup) weight
[16] = group: offspring, systemic / in life observation / body weight / offspring (pup) weight
[17] = group: parental, systemic / in life observation / body weight / body weight + systemic / in life observation / clinical signs / [other] + systemic / in life …
[18] = group: reproductive, reproductive / reproductive performance / resorptions / resorptions + reproductive / offspring survival early / dead fetuses / dead fetuses
[19] = systemic / in life observation / clinical signs / palpable mass + systemic / in life observation / clinical signs / vaginal discharge
[20] = systemic / in life observation / clinical signs / palpable mass + systemic / in life observation / clinical signs / vaginal discharge + …
[21] = systemic / clinical chemistry / [other] / [other] + systemic / clinical chemistry / chloride / chloride + systemic / in life observation / …
[22] = systemic / clinical chemistry / chloride / chloride + systemic / in life observation / clinical signs / urination
[23] = group: cholinesterase, cholinesterase / cholinesterase / cholinesterase / plasma cholinesterase (che)
[24] = group: systemic, systemic / in life observation / clinical signs / defecation (diarrhea)
[25] = group: systemic, systemic / in life observation / clinical signs / defecation (diarrhea) + systemic / in life observation / clinical signs / distended …
[26] = group: systemic, systemic / in life observation / body weight / body weight gain
[27] = group: systemic, systemic / in life observation / body weight / body weight gain + systemic / in life observation / mortality / mortality + systemic / in …
[28] = group: cholinesterase, cholinesterase / cholinesterase / cholinesterase / erythrocyte cholinesterase (che)
[29] = group: systemic, systemic / clinical chemistry / sodium / sodium
[30] = group: cholinesterase, cholinesterase / cholinesterase / cholinesterase / brain cholinesterase (che) + cholinesterase / cholinesterase / cholinesterase / …
[31] = group: systemic, systemic / in life observation / clinical signs / body surface staining + systemic / in life observation / clinical signs / hunched posture…
[32] = group: cholinesterase, cholinesterase / cholinesterase / cholinesterase / brain cholinesterase (che)
[33] = group: cholinesterase, cholinesterase / cholinesterase / cholinesterase / brain cholinesterase (che) + cholinesterase / cholinesterase / cholinesterase / plasma …
[34] = group: systemic, systemic / in life observation / body weight / body weight gain + systemic / in life observation / body weight / body weight
[35] = systemic / in life observation / body weight / body weight gain + systemic / in life observation / clinical signs / fur (altered appearance…
[36] = reproductive / reproductive performance / resorptions / resorptions + systemic / in life observation / body weight / body weight gain + …
[37] = systemic / in life observation / body weight / body weight gain + systemic / in life observation / mortality / mortality + reproductive / …
[38] = systemic / in life observation / body weight / body weight gain + systemic / in life observation / mortality / mortality + systemic / in …
[39] = group: cholinesterase, cholinesterase / cholinesterase / cholinesterase / brain (regional) cholinesterase (che) + cholinesterase / cholinesterase / cholinesterase…
[40] = group: systemic, systemic / clinical chemistry / albumin / albumin + systemic / clinical chemistry / calcium / calcium + systemic / clinical chemistry / …
[41] = group: cholinesterase, cholinesterase / cholinesterase / cholinesterase / erythrocyte cholinesterase (che) + cholinesterase / cholinesterase / cholinesterase / …
[42] = group: systemic, systemic / clinical chemistry / albumin / albumin + systemic / clinical chemistry / alkaline phosphatase (alp/alk) / alkaline phosphatase (…

Compound: ClC1=C(Cl)C2(Cl)C3C(Cl)C=CC3C1(Cl)C2(Cl)Cl (stereo not given) [Heptachlor]
- LOAEL (mink; [15]): > 25 mg/kg/day
- NOAEL (mink; [15]): ≥ 25 mg/kg/day
- LEL (mink; [16]): 6.25 mg/kg/day
- NEL (mink; [16]): < 6.25 mg/kg/day
- LEL (mink; [17]): 12.5 mg/kg/day
- LOAEL (mink; [17]): > 25 mg/kg/day
- NEL (mink; [17]): 6.25 mg/kg/day
- NOAEL (mink; [17]): ≥ 25 mg/kg/day
- NEL (mink; group: reproductive, reproductive / reproductive performance / resorptions / resorptions): 6.25 mg/kg/day
- LEL (mink; [18]): 12.5 mg/kg/day
- LOAEL (mink; [18]): > 25 mg/kg/day
- NOAEL (mink; [18]): ≥ 25 mg/kg/day
- LEL (mouse [1]): 2.07 mg/kg/day
- LOAEL (mouse [1]): > 2.07 mg/kg/day
- NEL (mouse [1]): 0.915 mg/kg/day
- NOAEL (mouse [1]): ≥ 2.07 mg/kg/day
- LEL (rat [2]; [19]): 1.28 mg/kg/day
- NEL (rat [2]; [19]): < 1.28 mg/kg/day
- LOAEL (rat [2]; [20]): > 2.56 mg/kg/day
- NOAEL (rat [2]; [20]): ≥ 2.56 mg/kg/day
- LOAEL (rat [3]; [21]): > 3 mg/kg/day
- NOAEL (rat [3]; [21]): ≥ 3 mg/kg/day
- LEL (rat [3]; [22]): 0.03 mg/kg/day
- NEL (rat [3]; [22]): < 0.03 mg/kg/day

Compound: CCOP(=S)(OCC)OC(Cl)C(Cl)(Cl)Cl (stereo not given) [Chlorethoxyfos]
- LEL (dog [4]; [23]): 0.061 mg/kg/day
- LOAEL (dog [4]; [23]): 0.578 mg/kg/day
- NEL (dog [4]; [23]): < 0.061 mg/kg/day
- NOAEL (dog [4]; group: cholinesterase, cholinesterase / cholinesterase / cholinesterase / plasma cholinesterase (che) + cholinesterase / cholinesterase / cholinesterase / brain (…): 0.061 mg/kg/day
- LEL (dog [4]; [24]): 0.578 mg/kg/day
- LOAEL (dog [4]; [24]): 0.578 mg/kg/day
- NEL (dog [4]; [25]): 0.061 mg/kg/day
- NOAEL (dog [4]; [25]): 0.061 mg/kg/day
- LEL (mouse [5]; [23]): 0.15 mg/kg/day
- LOAEL (mouse [5]; [23]): 0.15 mg/kg/day
- NEL (mouse [5]; [23]): 0.015 mg/kg/day
- NOAEL (mouse [5]; [23]): 0.015 mg/kg/day
- LOAEL (mouse [5]; [26]): 11.2 mg/kg/day
- LEL (mouse [5]; group: systemic, systemic / in life observation / body weight / body weight gain + systemic / in life observation / body weight / body weight + systemic / in…): 11.2 mg/kg/day
- NEL (mouse [5]; [27]): 0.15 mg/kg/day
- NOAEL (mouse [5]; [27]): 0.15 mg/kg/day
- LEL (rat [6]; [28]): 0.311 mg/kg/day
- LOAEL (rat [6]; [28]): 0.311 mg/kg/day
- NEL (rat [6]; [28]): 0.154 mg/kg/day
- NOAEL (rat [6]; [28]): 0.154 mg/kg/day
- LEL (rat [6]; [29]): 0.416 mg/kg/day
- LOAEL (rat [6]; [29]): > 0.416 mg/kg/day
- NEL (rat [6]; [29]): 0.208 mg/kg/day
- NOAEL (rat [6]; [29]): ≥ 0.416 mg/kg/day
- LEL (rat [7]; [30]): 0.635 mg/kg/day
- LOAEL (rat [7]; [30]): > 1.64 mg/kg/day
- NEL (rat [7]; [30]): 0.08 mg/kg/day
- NOAEL (rat [7]; [30]): ≥ 1.64 mg/kg/day
- LEL (rat [7]; [31]): 1.23 mg/kg/day
- LOAEL (rat [7]; [31]): 1.23 mg/kg/day
- NEL (rat [7]; [31]): 0.635 mg/kg/day
- NOAEL (rat [7]; [31]): 0.635 mg/kg/day
- LEL (rat [8]; [32]): 0.66 mg/kg/day
- LOAEL (rat [8]; [32]): 0.66 mg/kg/day
- NEL (rat [8]; [33]): 0.132 mg/kg/day
- NOAEL (rat [8]; [33]): 0.132 mg/kg/day
- LOAEL (rat [8]; [26]): 0.958 mg/kg/day
- LEL (rat [8]; [34]): 0.958 mg/kg/day
- NEL (rat [8]; [34]): 0.477 mg/kg/day
- NOAEL (rat [8]; [34]): 0.477 mg/kg/day
- LOAEL (mouse [9]; [35]): 14.9 mg/kg/day
- NEL (mouse [9]; [35]): 0.337 mg/kg/day
- NOAEL (mouse [9]; [35]): 3.25 mg/kg/day
- LEL (mouse [9]; systemic / pathology gross / skin / discolored): 3.25 mg/kg/day
- LOAEL (rabbit; reproductive / reproductive performance / resorptions / resorptions): 3.1 mg/kg/day
- LEL (rabbit; [36]): 3.1 mg/kg/day
- NEL (rabbit; [36]): 1.38 mg/kg/day
- NOAEL (rabbit; [36]): 1.38 mg/kg/day
- LEL (rat [10]; [37]): 0.5 mg/kg/day
- LOAEL (rat [10]; [37]): 0.5 mg/kg/day
- NEL (rat [10]; [38]): 0.25 mg/kg/day
- NOAEL (rat [10]; [38]): 0.25 mg/kg/day
- LEL (dog [11]; [39]): 0.125 mg/kg/day
- LOAEL (dog [11]; [39]): 0.125 mg/kg/day
- NEL (dog [11]; [39]): 0.0125 mg/kg/day
- NOAEL (dog [11]; [39]): 0.0125 mg/kg/day
- LEL (dog [11]; [40]): 1.25 mg/kg/day
- LOAEL (dog [11]; [40]): > 1.25 mg/kg/day
- NEL (dog [11]; [40]): 0.125 mg/kg/day
- NOAEL (dog [11]; [40]): ≥ 1.25 mg/kg/day
- LEL (dog [12]; [41]): 0.591 mg/kg/day
- LOAEL (dog [12]; [41]): 0.591 mg/kg/day
- NEL (dog [12]; [41]): 0.065 mg/kg/day
- NOAEL (dog [12]; [41]): 0.065 mg/kg/day
- LOAEL (dog [12]; group: systemic, systemic / clinical chemistry / albumin / albumin): 1.86 mg/kg/day
- NEL (dog [12]; [42]): 0.065 mg/kg/day
- NOAEL (dog [12]; [42]): 0.591 mg/kg/day
- LEL (dog [12]; group: systemic, systemic / clinical chemistry / calcium / calcium): 0.591 mg/kg/day

Compound: N#CCCNCCC#N [3,3'-Iminobispropanenitrile]
- LEL (rat [13]): 300 mg/kg/day
- LOAEL (rat [13]): > 300 mg/kg/day
- NEL (rat [13]): 150 mg/kg/day
- NOAEL (rat [13]): ≥ 300 mg/kg/day

Compound: ClC=C(Cl)Cl [Trichloroethylene]
- LEL (rat [14]): 1800 ppm
- LOAEL (rat [14]): > 1800 ppm
- NEL (rat [14]): < 1800 ppm
- NOAEL (rat [14]): ≥ 1800 ppm
